Experiments:
Assay type in all cases: cell-based
HSP70 protein level [1] = test: HSP70 ELISA (Enzo kit), normal human dermal fibroblasts, 24 h treatment; details: 0.01%, HDF cells, FIG. 4
Protocol: (§1) Normal human dermal fibroblasts (Cascade Biologics) were seeded into four wells of a six well plate (5.0×10^5 cells/well) and cultured overnight. The following day, cells were replenished with fresh media and test compositions were added. The test compositions including their control for each formulation: […]
(§2) Following 24 hours of treatment, the cells were lysed and the HSP70 protein level was measured using an ELISA kit (available from Enzo Life Sciences). Cells were lysed using the lysis buffer provided with the kit. The amount of proteins for each sample was calculated using the standard curve.
The assay was performed in triplicate for each sample and the values represent mean±S.D. (standard deviation).

HSP70 protein level [2] = test: HSP70 ELISA (Abcam kit), full thickness human 3D skin cultures (MatTek), 24 h treatment; details: 1% by weight, skin 3-D tissues, FIG. 6
Protocol: A series of experiments was conducted to assess the effects of various treatments with HSP70 inducers on full thickness 3D skin cultures. Human 3D skin (MatTek, Mass.) were cultured following the manufacturer's instructions overnight. The following day, tissues were replenished with fresh media and then compositions comprising various potential actives were added. Following 24 hours of treatment, the tissues were lysed and the HSP70 protein level was measured using an ELISA kit (available from Abcam). The amount of the proteins was calculated according to the standard curve. For these measurements, the test materials were formulated in control at 1% by weight of the composition or at 0.04% by weight of the composition (Arnica montana, rosemary, black cohosh, turmeric, chamomile, aloe, horse chestnut, linseed, grapeseed, argan oil, gromwell, marjoram, sage, lauric acid, butyric acid) or they were formulated in control at 0.04% by weight of the composition (licorice, tetrahydrocurcumin (THC), olive leaf, milk thistle, glutamate).
The results are shown in FIG. 6 as the measured amount of HSP70 proteins/μg total protein for each sample. Samples labeled with “*” indicate a p value compared to the control of less than 0.05.

HSP70 protein level [3] = test: HSP70 ELISA (Abcam kit), normal human dermal fibroblasts, 24 h treatment; details: for stimulation of HSP70 protein level as compared to control: HDF cells, FIG. 5; for HSP70 induction value (Control = 1): normal human dermal fibroblasts, FIG. 3
Protocol: Normal human dermal fibroblasts were cultured in 6-well tissue culture treated plates. Cells were treated with test material (agent/compound) at the concentrations indicated, or with respective vehicle control diluted in growth medium, for 24 hours in a humidified 37° C. incubator with 5% CO2. After incubation, growth medium from each plate was removed and cells were lysed. HSP70 protein level in the cells was determined by a commercially available ELISA kit (Abcam, Cambridge, Mass.). In FIG. 3, Control induction value=1; shikonin (1 μM concentration) induction value=1.7; Arnica Montana (0.003% concentration) induction value=1.86; resveratrol (0.003% concentration) induction value=1.47; and G. T. polyphenol (0.003% concentration) induction value=1.24.
as §1, with “Similar experimentation on other HSP70 inducers was performed using an HSP70 ELISA kit (available from Abcam; cat. # ab133060). Briefly, normal” for “Normal”
as §2, with “The active ingredient was formulated in the ethanol:water control. Following” for “Following”, “Abcam).” for “Enzo Life Sciences).”
The assay was performed in triplicate for each sample and the values represent mean±S.D. (standard deviation). Samples labeled with “*” indicate a p value compared to the control of less than 0.05.

Compound | stimulation of HSP70 protein level as compared to control (HSP70 protein level [3]; 0.003%) | HSP70 induction value (Control = 1) (HSP70 protein level [3]; 0.003%) | further results
C=C(C)[C@@H]1CCC(C)=C[C@H]1c1c(O)cc(CCCCC)cc1O [CBD, cannabidiol] |  |  | stimulation of HSP70 protein level compared to its control (HSP70 protein level [1]): 189%
CCCC(=O)O [butyric acid] |  |  | stimulation of HSP70 protein levels as compared to control (HSP70 protein level [2]): 248%
Oc1ccc(/C=C/c2cc(O)cc(O)c2)cc1 [resveratrol, trans-3,5,4′-trihydroxystilbene] | 147% | 1.47 | 
CC(C)=CC[C@@H](O)C1=CC(=O)c2c(O)ccc(O)c2C1=O [shikonin] |  |  | stimulation of HSP70 protein level as compared to control (HSP70 protein level [3]; 1 μM): 170%; HSP70 induction value (Control = 1) (HSP70 protein level [3]; 1 μM): 1.7
epigallocatechin-3-gallate [G. T. polyphenol] | 124% | 1.24 | 
